PMC6009956, “Design, synthesis and biological activity of N^4-phenylsubstituted-7H-pyrrolo[2,3-d]pyrimidin-4-amines as dual inhibitors of aurora kinase A and epidermal growth factor receptor kinase” (Journal of Enzyme Inhibition and Medicinal Chemistry, 2017)
Like-named read-outs stand apart in the source and are kept apart here.

Assays:
aurora A kinase (AURKA) = molecular target: T1, aurora A kinase (AURKA) (Homo sapiens, UniProt O14965); assay: ADP-Glo kinase assay, Aurora A; type: biochemical
T1 construct: purchased BPS Bioscience (assay run externally by the vendor)
T1 sequence (O14965 1-403): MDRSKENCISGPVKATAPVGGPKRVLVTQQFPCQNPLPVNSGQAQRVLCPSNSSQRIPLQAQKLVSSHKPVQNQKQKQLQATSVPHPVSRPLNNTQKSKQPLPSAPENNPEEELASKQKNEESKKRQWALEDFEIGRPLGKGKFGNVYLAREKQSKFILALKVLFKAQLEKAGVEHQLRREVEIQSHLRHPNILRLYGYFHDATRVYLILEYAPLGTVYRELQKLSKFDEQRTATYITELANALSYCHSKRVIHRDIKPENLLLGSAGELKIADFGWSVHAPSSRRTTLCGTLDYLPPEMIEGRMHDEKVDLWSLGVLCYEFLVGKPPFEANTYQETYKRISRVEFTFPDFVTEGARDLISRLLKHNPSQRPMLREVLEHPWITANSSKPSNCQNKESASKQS

EGFR = EGFR (Homo sapiens, UniProt P00533); assay: ADP-Glo kinase assay, EGFR; type: biochemical; parameters: purchased BPS Bioscience (assay run externally by the vendor)
Chain of EGFR (P00533 25-1210): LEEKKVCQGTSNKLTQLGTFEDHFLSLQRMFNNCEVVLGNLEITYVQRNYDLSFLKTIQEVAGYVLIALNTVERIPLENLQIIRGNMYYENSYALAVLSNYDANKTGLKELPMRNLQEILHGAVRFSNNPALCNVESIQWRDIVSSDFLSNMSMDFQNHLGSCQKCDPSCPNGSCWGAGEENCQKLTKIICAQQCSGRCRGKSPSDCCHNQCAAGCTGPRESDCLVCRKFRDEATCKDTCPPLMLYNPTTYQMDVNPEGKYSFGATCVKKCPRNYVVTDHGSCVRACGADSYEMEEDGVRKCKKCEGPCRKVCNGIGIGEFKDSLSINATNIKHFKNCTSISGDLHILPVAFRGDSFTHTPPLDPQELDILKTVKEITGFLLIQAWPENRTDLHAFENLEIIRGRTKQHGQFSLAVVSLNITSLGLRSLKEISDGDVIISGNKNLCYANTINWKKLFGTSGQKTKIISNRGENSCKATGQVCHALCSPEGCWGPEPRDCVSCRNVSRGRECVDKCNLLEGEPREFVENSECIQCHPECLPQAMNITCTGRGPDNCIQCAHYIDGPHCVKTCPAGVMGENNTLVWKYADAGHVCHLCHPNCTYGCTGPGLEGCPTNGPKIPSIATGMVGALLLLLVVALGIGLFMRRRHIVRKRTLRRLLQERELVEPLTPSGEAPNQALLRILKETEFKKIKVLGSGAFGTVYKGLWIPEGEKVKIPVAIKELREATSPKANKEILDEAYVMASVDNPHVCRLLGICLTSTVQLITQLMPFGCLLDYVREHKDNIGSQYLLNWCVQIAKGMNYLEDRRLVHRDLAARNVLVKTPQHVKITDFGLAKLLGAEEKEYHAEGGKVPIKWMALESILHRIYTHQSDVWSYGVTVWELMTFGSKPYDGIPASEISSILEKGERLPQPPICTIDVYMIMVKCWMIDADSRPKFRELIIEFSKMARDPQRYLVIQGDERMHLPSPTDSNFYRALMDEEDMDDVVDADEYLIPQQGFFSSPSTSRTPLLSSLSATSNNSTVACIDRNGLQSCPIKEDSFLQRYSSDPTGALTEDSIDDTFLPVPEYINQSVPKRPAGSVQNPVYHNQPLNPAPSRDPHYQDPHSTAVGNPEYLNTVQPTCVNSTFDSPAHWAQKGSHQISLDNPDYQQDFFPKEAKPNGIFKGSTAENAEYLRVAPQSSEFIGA

- IC50 (aurora A kinase (AURKA); 10 µM ATP, triplicate, read-out: AURKA IC50 ± SD): 3290 ± 150 nM
- IC50 (aurora A kinase (AURKA); 10 µM ATP/0.2 mg/ml Kemptide, read-out: Aurora A IC50 (dose-response curve, supplement)): 3300 nM
- Aurora A % Activity Set1 (aurora A kinase (AURKA); Log[nM] 0): 95%
- Aurora A % Activity Set2 (aurora A kinase (AURKA); Log[nM] 0): 93%
- Aurora A % Activity Set3 (aurora A kinase (AURKA); Log[nM] 0): 100%
- Aurora A % Activity Set1 (aurora A kinase (AURKA); Log[nM] 1.0): 99%
- Aurora A % Activity Set2 (aurora A kinase (AURKA); Log[nM] 1.0): 96%
- Aurora A % Activity Set3 (aurora A kinase (AURKA); Log[nM] 1.0): 101%
- Aurora A % Activity Set1 (aurora A kinase (AURKA); Log[nM] 1.5): 99%
- Aurora A % Activity Set2 (aurora A kinase (AURKA); Log[nM] 1.5): 94%
- Aurora A % Activity Set3 (aurora A kinase (AURKA); Log[nM] 1.5): 105%
- Aurora A % Activity Set1 (aurora A kinase (AURKA); Log[nM] 2.0): 105%
- Aurora A % Activity Set2 (aurora A kinase (AURKA); Log[nM] 2.0): 104%
- Aurora A % Activity Set3 (aurora A kinase (AURKA); Log[nM] 2.0): 107%
- Aurora A % Activity Set1 (aurora A kinase (AURKA); Log[nM] 2.5): 104%
- Aurora A % Activity Set2 (aurora A kinase (AURKA); Log[nM] 2.5): 105%
- Aurora A % Activity Set3 (aurora A kinase (AURKA); Log[nM] 2.5): 103%
- Aurora A % Activity Set1 (aurora A kinase (AURKA); Log[nM] 3.0): 78%
- Aurora A % Activity Set2 (aurora A kinase (AURKA); Log[nM] 3.0): 75%
- Aurora A % Activity Set3 (aurora A kinase (AURKA); Log[nM] 3.0): 77%
- Aurora A % Activity Set1 (aurora A kinase (AURKA); Log[nM] 3.5): 53%
- Aurora A % Activity Set2 (aurora A kinase (AURKA); Log[nM] 3.5): 57%
- Aurora A % Activity Set3 (aurora A kinase (AURKA); Log[nM] 3.5): 52%
- Aurora A % Activity Set1 (aurora A kinase (AURKA); Log[nM] 4.0): 17%
- Aurora A % Activity Set2 (aurora A kinase (AURKA); Log[nM] 4.0): 16%
- Aurora A % Activity Set3 (aurora A kinase (AURKA); Log[nM] 4.0): 16%
- Aurora A % Activity Set1 (aurora A kinase (AURKA); Log[nM] 4.5): 7%
- Aurora A % Activity Set2 (aurora A kinase (AURKA); Log[nM] 4.5): 6%
- Aurora A % Activity Set3 (aurora A kinase (AURKA); Log[nM] 4.5): 7%
- Aurora A % Activity Set1 (aurora A kinase (AURKA); Log[nM] 5.0): 6%
- Aurora A % Activity Set2 (aurora A kinase (AURKA); Log[nM] 5.0): 5%
- Aurora A % Activity Set3 (aurora A kinase (AURKA); Log[nM] 5.0): 5%
- EGFR inhibition (in words) (EGFR): single-digit nanomolar EGFR inhibition
- IC50 (EGFR; 10 µM ATP, triplicate, read-out: EGFR IC50 ± SD): 5.98 ± 0.61 nM
- IC50 (EGFR; 10 µM ATP/0.2 mg/ml Poly-Glu-Tyr, read-out: EGFR IC50 (dose-response curve, supplement)): 5.9 nM
- EGFR % Activity Set1 (EGFR; Log[nM] 0): 57%
- EGFR % Activity Set2 (EGFR; Log[nM] 0): 58%
- EGFR % Activity Set3 (EGFR; Log[nM] 0): 56%
- EGFR % Activity Set1 (EGFR; Log[nM] 1.0): 38%
- EGFR % Activity Set2 (EGFR; Log[nM] 1.0): 37%
- EGFR % Activity Set3 (EGFR; Log[nM] 1.0): 40%
- EGFR % Activity Set1 (EGFR; Log[nM] 1.5): 13%
- EGFR % Activity Set2 (EGFR; Log[nM] 1.5): 16%
- EGFR % Activity Set3 (EGFR; Log[nM] 1.5): 16%
- EGFR % Activity Set1 (EGFR; Log[nM] 2.0): 7%
- EGFR % Activity Set2 (EGFR; Log[nM] 2.0): 7%
- EGFR % Activity Set3 (EGFR; Log[nM] 2.0): 8%
- EGFR % Activity Set1 (EGFR; Log[nM] 2.5): 2%
- EGFR % Activity Set2 (EGFR; Log[nM] 2.5): 4%
- EGFR % Activity Set3 (EGFR; Log[nM] 2.5): 3%
- EGFR % Activity Set1 (EGFR; Log[nM] 3.0): 1%
- EGFR % Activity Set2 (EGFR; Log[nM] 3.0): 1%
- EGFR % Activity Set3 (EGFR; Log[nM] 3.0): 2%
- EGFR % Activity Set1 (EGFR; Log[nM] 3.5): 0%
- EGFR % Activity Set2 (EGFR; Log[nM] 3.5): 1%
- EGFR % Activity Set3 (EGFR; Log[nM] 3.5): 0%
- EGFR % Activity Set1 (EGFR; Log[nM] 4.0): 0%
- EGFR % Activity Set2 (EGFR; Log[nM] 4.0): 0%
- EGFR % Activity Set3 (EGFR; Log[nM] 4.0): 0%
- EGFR % Activity Set1 (EGFR; Log[nM] 4.5): 0%
- EGFR % Activity Set2 (EGFR; Log[nM] 4.5): 0%
- EGFR % Activity Set3 (EGFR; Log[nM] 4.5): 0%
- EGFR % Activity Set1 (EGFR; Log[nM] 5.0): 0%
- EGFR % Activity Set2 (EGFR; Log[nM] 5.0): 0%
- EGFR % Activity Set3 (EGFR; Log[nM] 5.0): 0%
SMILES: Fc1cc(Nc2ncnc3[nH]ccc23)ccc1Cl [Compound 3, N^4-(3-fluoro-4-chlorophenyl)-7H-pyrrolo[2,3-d]pyrimidine-4-amine]
